Results taken from paper PMC11093748, “De novo identification of CD4^+ T cell epitopes” (Nature Methods, 2024).

Key:
Assay in all cases: I-Ag7 SABR-II library screen, enrichment score
Type in all cases: cell-based, mouse
[1] = test system: TCR11; conditions: for Enrichment score: TCR11, TCR_Mean minus PREDICTED_TCR (from LIB_Mean, SLOPE 0.869084, INTERCEPT 3.21267e-5), PZ51
From the text: (§1) We then asked whether SABR-IIs could be used to present a library of epitopes for CD4^+ T cell antigen discovery. To that end, we constructed a SABR-II library to present epitopes derived from pancreatic islets in I-Ag7 by curating a list of 4,075 published epitopes from the Immune Epitope Database (iedb.org)[50] and a study by Wan et al.[51] (Supplementary Table 1). Of note, this defined library consisted of unmodified epitopes from endogenous proteins, synthetic mimotopes, deamidated epitopes and hybrid insulin peptides (HIPs) that arise from post-translational fusion and are not genetically encoded in vivo[52],[53]. The epitope library was inserted into the I-Ag7 SABR-II backbone through pooled oligonucleotide synthesis, amplification and ligation-free cloning (Extended Data Fig. 3a). The I-Ag7 SABR-II-library was then expressed in NFAT–GFP Jurkat cells. We confirmed that after sequencing, the library accounted for a mean of 708 reads per epitope (Extended Data Fig. 3b). As a proof of concept, we performed co-incubation assays with Jurkat cells expressing the BDC2.5 TCR and sorted the top 1–2% of GFP^+CD69^+ cells at a rate of ~20 min per replicate with three replicates per TCR. We extracted the genomic DNA from sorted cells, amplified the SABR portion of the integrated proviruses and subjected the amplicons to Illumina sequencing (Extended Data Fig. 3c,d). The 1–2% sort gate represents >50-fold enrichment of cognate epitopes with minimal loss of signal (Extended Data Fig. 3e–h). Sequence reads were aligned to the I-Ag7 SABR-II backbone and the corresponding epitopes were scored based on their read counts. For each TCR under investigation, an enrichment score (ES) was determined for all the epitopes in a library. In each experiment, three replicates of a sort with TCR-expressing Jurkat cells were performed and reads were counted post-sequencing. In addition, three replicates of the unsorted library were also sequenced. A linear regression model was built using the unsorted library counts and used to determine the expected abundance of each epitope in the library. The ES was calculated based on the difference between the measured and the expected abundance of each epitope on a per-TCR basis (Fig. 1e). Based on ES values, two quantitative thresholds were used to determine putative cognate epitopes of a given TCR. A high-confidence zone containing clear outliers with a high ES and a low-confidence zone containing weak outliers with a moderately high ES were determined (Fig. 1e). This two-tiered strategy was used to call putative hits from screens. All the top-scoring epitopes for the BDC2.5 TCR were known BDC2.5 ligands containing the WXRM(D/E) motif (Fig. 1f,g, enriched ligands in red), a well-characterized trait of the BDC2.5 TCR[43],[54]–[56]. Across several independent experiments there was limited variation in ES values for the same TCRs and several epitopes fell into high- or low-confidence zones consistently (Extended Data Fig. 4a). Using a different TCR that was isolated from NOD mice, 4-8Ins[57], which recognized the InsB9:23 epitope ([…]), we observed a similar pattern of ES for cognate epitopes (Extended Data Fig. 4b).
(§2) We performed systematic screening of the cloned TCRs against the I-Ag7 SABR-II library. Several TCRs along with a positive control (such as BDC2.5 or 4-8Ins) were screened individually against the library for each sort (Extended Data Fig. 6a and Supplementary Table 4). High- and low-confidence ES zones for each screened TCR were defined by the ES values of the control TCR’s cognate epitopes. For all putative cognate epitopes, single SABR-IIs were constructed, expressed in NFAT–GFP Jurkat cells and used for co-incubation with the corresponding TCRs. Co-incubation assays that yielded a GFP signal higher than that obtained in assays with no TCR were determined to be positive and the epitopes deemed true cognate ligands (Extended Data Fig. 6b,c). […]

[2] = test system: TCR24; conditions: for Enrichment score: TCR_Mean minus PREDICTED_TCR (slope 0.96363, intercept 8.9252e-6 on LIB_Mean), TCR 24, run PZ98
From the text: as §1, §2

[3] = test system: TCR30; conditions: for Enrichment score: TCR_Mean minus PREDICTED_TCR (slope 0.934363, intercept 1.61073e-5 on LIB_Mean), TCR 30, run PZ98
From the text: as §1, §2

[4] = test system: TCR37; conditions: for Enrichment score: TCR_Mean minus PREDICTED_TCR (slope 0.904637, intercept 2.34021e-5 on LIB_Mean), TCR 37, run PZ57
From the text: as §1, §2

[5] = test system: TCR10B; conditions: TCR_Mean minus PREDICTED_TCR (from LIB_Mean, SLOPE 0.894516, INTERCEPT 2.58857e-5), PZ51
From the text: as §1, §2

[6] = test system: TCR13
From the text: as §1, §2

[7] = test system: TCR15; conditions: for Enrichment score: TCR15, TCR_Mean minus PREDICTED_TCR (from LIB_Mean, SLOPE 0.918454, INTERCEPT 2.00113e-5), PZ37
From the text: as §1, §2

[8] = test system: TCR17B; conditions: TCR_Mean minus PREDICTED_TCR (from LIB_Mean, SLOPE 0.911347, INTERCEPT 2.17553e-5), PZ52
From the text: as §1, §2

[9] = test system: TCR17C; conditions: TCR_Mean minus PREDICTED_TCR (from LIB_Mean, SLOPE 0.897918, INTERCEPT 2.50509e-5), PZ52
From the text: as §1, §2

[10] = test system: TCR34; conditions: TCR_Mean minus PREDICTED_TCR (slope 0.916696, intercept 2.04427e-5 on LIB_Mean), TCR 34, run PZ57
From the text: as §1, §2

[11] = test system: TCR36; conditions: TCR_Mean minus PREDICTED_TCR (slope 0.914754, intercept 2.09193e-5 on LIB_Mean), TCR 36, run PZ57
From the text: as §1, §2

[12] = test system: TCR3
From the text: as §1, §2

[13] = test system: TCR4; conditions: for Enrichment score: sheet TCR4-PZ44, ES = TCRObserved - TCRPredicted, TCRPredicted = LIBObserved x SLOPE + INTERCEPT, SLOPE 0.903208, INTERCEPT 2.37527e-5
From the text: as §1, §2

[14] = I-Ag7 library, one biological experiment
[15] = TCR13, TCR_Mean minus PREDICTED_TCR (from LIB_Mean, SLOPE 0.90397, INTERCEPT 2.35655e-5), PZ51
[16] = sheet TCR3-PZ37, ES = TCRObserved - TCRPredicted, TCRPredicted = LIBObserved x SLOPE + INTERCEPT, SLOPE 0.907522, INTERCEPT 2.2694e-5

For SHLVEALYLVCGERG, which “recognition by TCR (screen hit, validated by single SABR-II co-incubation)” value (from here on “recognition by TCR”) ([1]; low-confidence hit) is on record?
Its value is “confirmation of reactivity”.

And the “recognition by TCR” value ([2]; high-confidence zone)?
The value was “recognized”.

What about the “recognition by TCR” value ([3]; low-confidence hit) of the same sequence?
Its value is “confirmation of reactivity”.

And the “recognition by TCR” value ([4]; high-confidence zone)?
The value was “recognized”.

Which “Enrichment score” value [5] does the source give for AKAAVEEGIVAGGGV here?
Its value is 7.202e-5.

What about the “Enrichment score” value [1] of the same sequence?
Its value is 0.0001401.

And the Enrichment score [6, 14]?
Its Enrichment score is 0.0001008.

And the “Enrichment score” value [6, 15]?
The value was 0.0001008.

And the “Enrichment score” value [7]?
The value was 1.733e-5.

What about the “Enrichment score” value [8] of the same sequence?
Its value is 0.0004148.

What about the “Enrichment score” value [9] of the same sequence?
The value was -5.707e-5.

What about the “Enrichment score” value [2] of the same sequence?
Its value is 2.968e-5.

And the “Enrichment score” value [3]?
Its value is 8.616e-5.

What about the “Enrichment score” value [10] of the same sequence?
The value was 3.575e-5.

What about the “Enrichment score” value [11] of the same sequence?
The value was -3.854e-5.

What about the “Enrichment score” value [4] of the same sequence?
Its value is -6.503e-5.

And the Enrichment score [12, 14]?
The Enrichment score was -0.0001294.

What about the “Enrichment score” value [12, 16] of the same sequence?
The value was -0.0001294.

What about the “Enrichment score” value [13] of the same sequence?
Its value is -0.0001441.

How did the “Enrichment score” value [5] turn out when AEKVRNLPAGHGLNAQ was run?
Its value is -0.0001336.

What about the “Enrichment score” value [1] of the same sequence?
The value was 0.0002492.

What about the Enrichment score [6, 14] of the same sequence?
Its Enrichment score is 0.000137.

And the “Enrichment score” value [6, 15]?
Its value is 0.000137.

What about the “Enrichment score” value [7] of the same sequence?
Its value is 0.000168.

What about the “Enrichment score” value [8] of the same sequence?
The value was -3.983e-5.

What about the “Enrichment score” value [9] of the same sequence?
The value was 2.049e-5.

And the “Enrichment score” value [2]?
The value was 0.0001713.

What about the “Enrichment score” value [3] of the same sequence?
The value was 0.0001445.

What about the “Enrichment score” value [10] of the same sequence?
Its value is 6.942e-5.

What about the “Enrichment score” value [11] of the same sequence?
The value was -6.905e-5.

What about the “Enrichment score” value [4] of the same sequence?
The value was 0.0002899.

And the Enrichment score [12, 14]?
Its Enrichment score is -2.569e-5.

What about the “Enrichment score” value [12, 16] of the same sequence?
The value was -2.569e-5.

And the “Enrichment score” value [13]?
The value was -5.549e-7.

How did the “Enrichment score” value [5] turn out when ALVREGLRNVAAGANP was run?
The value was -2.589e-5.

What about the “Enrichment score” value [1] of the same sequence?
Its value is -3.213e-5.

What about the Enrichment score [6, 14] of the same sequence?
The Enrichment score was -2.357e-5.

What about the “Enrichment score” value [6, 15] of the same sequence?
The value was -2.357e-5.

What about the “Enrichment score” value [7] of the same sequence?
The value was -2.061e-5.

And the “Enrichment score” value [8]?
Its value is -2.185e-5.

And the “Enrichment score” value [9]?
Its value is -2.514e-5.

And the “Enrichment score” value [2]?
The value was -8.9252e-6.

And the “Enrichment score” value [3]?
Its value is -1.611e-5.

And the “Enrichment score” value [10]?
Its value is -2.044e-5.

What about the “Enrichment score” value [11] of the same sequence?
The value was -2.092e-5.

And the “Enrichment score” value [4]?
The value was -2.34e-5.

What about the Enrichment score [12, 14] of the same sequence?
The Enrichment score was -2.328e-5.

And the “Enrichment score” value [12, 16]?
Its value is -2.328e-5.

What about the “Enrichment score” value [13] of the same sequence?
The value was -2.375e-5.

What does the source list for AGGVAVIKAGAATEV?
Enrichment score [5]: 1.586e-6; Enrichment score [1]: -2.692e-5; Enrichment score [6, 14]: 0.0001675; Enrichment score [6, 15]: 0.0001675; Enrichment score [7]: 2.956e-5; Enrichment score [8]: 5.455e-5; Enrichment score [9]: -0.0001062; Enrichment score [2]: -1.094e-5; Enrichment score [3]: -2.42e-5; Enrichment score [10]: -0.0001037; Enrichment score [11]: -1.016e-5; Enrichment score [4]: -0.0001031; Enrichment score [12, 14]: -3.191e-5; Enrichment score [12, 16]: -3.191e-5; Enrichment score [13]: 2.046e-5

With LQTLALNAARDP as the sequence, how does the “recognition by TCR” value ([7]; high-confidence zone) read?
Its value is “recognized”.

And the “recognition by TCR” value ([13]; high-confidence zone)?
Its value is “recognized”.

Which “Enrichment score” value [5] does the source give for AAVEEGIVAGGGVTLL here?
Its value is -7.785e-5.

What about the “Enrichment score” value [1] of the same sequence?
Its value is 9.192e-5.

And the Enrichment score [6, 14]?
Its Enrichment score is 0.0001546.

And the “Enrichment score” value [6, 15]?
Its value is 0.0001546.

What about the “Enrichment score” value [7] of the same sequence?
Its value is -0.000165.

What about the “Enrichment score” value [8] of the same sequence?
Its value is -0.0001643.

And the “Enrichment score” value [9]?
Its value is -3.436e-5.

What about the “Enrichment score” value [2] of the same sequence?
The value was 0.0001615.

What about the “Enrichment score” value [3] of the same sequence?
The value was -2.605e-6.

What about the “Enrichment score” value [10] of the same sequence?
The value was -0.0002018.

And the “Enrichment score” value [11]?
Its value is -0.0001187.

And the “Enrichment score” value [4]?
Its value is -4.879e-5.

What about the Enrichment score [12, 14] of the same sequence?
The Enrichment score was -0.00015.

What about the “Enrichment score” value [12, 16] of the same sequence?
The value was -0.00015.

What about the “Enrichment score” value [13] of the same sequence?
Its value is 3.881e-5.
